Data set [1] has as its system Caco-2 and HT-29 co-cultured cells. Kind of data set: MTT cytotoxicity (cell viability) assay. On the procedure:
MTT assay was used for the cytotoxicity study. […] The DMEM was discarded, and the Caco-2 and HT-29 co-cultured cells were washed with PBS before introducing TP5 test samples. […] Subsequently, 20 μL of MTT (5 mg/mL) was added, and the cells were incubated for an additional 4 h. Dimethyl sulfoxide (DMSO) was introduced to dissolve the formazan crystals, and the absorbance at 570 nm was measured using a microplate UV-Vis spectrophotometer (SpectraMax® Plus, Molecular Devices, San Jose, CA, USA). The percentage of cell viability was calculated in comparison to the untreated control group.
For each test sample group and at every time point over the course of three days, cell viability was computed. The outcomes were consolidated using the SoftMax Pro v5 software system through Equation (1). (1) V=A/A0×100% where V is the cell viability, A is sample absorbance, and A0 is control absorbance.
The concentration of these selected inhibitors and enhancers was screened by cytotoxicity using Caco-2 and HT-29 co-cultured cells by MTT assay. Then, these inhibitors and enhancers with safe concentrations were added to the AP side with a 0.5 mL 1 mg/mL solution of TP5 and TP5-PEG-niosomes, respectively. All inhibitors were dissolved in dimethyl sulfoxide and diluted with HBSS. The transport characteristics of TP5 and TP5-PEG-niosomes through Caco-2 and HT-29 co-cultured cell monolayers were expressed as the cumulative transported drug and transport rate. The transport rate (Flux) was denoted in μg/min/cm^2 and computed using the formula Flux = (dM/dt)/A, where dM/dt represents the cumulative amount of TP5 in the BL side per unit time (µg/min), and A is the surface area of the insert membrane (1.1 cm^2). […] The TEER values of the monolayers were assessed at 1 h intervals throughout the experimental duration, guaranteeing the integrity of the monolayers.

Data set [2] shares this test system. Kind of data set: Quantitative cellular uptake of TP5 (RP-HPLC and BCA protein assay), with inhibitors and low temperature. In kind it is in vitro ADME, human. On the procedure:
Briefly, 5 mL of Caco-2 and HT-29 co-cultured cells’ suspension at a density of 10^5 cells/cm^2 was seeded onto 60 mm plastic dishes (Corning, New York, NY, USA), fed complete DMEM every 3 days and incubated at 37 °C in an atmosphere of 5% CO2 and 95% relative humidity. […] Then, 25 µL of the cell lysates from each well were subjected to a BCA protein assay (Thermo Scientific, Waltham, MA, USA) to determine the amount of cell protein. The entire protein concentration in each group was calculated based on the linearity equation obtained from the BSA standard curve. Then, cell lysates were centrifuged for 15 min at 14,000 rpm, and the supernatants were analyzed for the amount of uptake TP5 using the RP-HPLC method mentioned earlier. The uptake of TP5 by Caco-2 and HT-29 co-cultured cells was calculated and expressed as the amount of drug (ng) uptake per µg cell protein. One of the mechanisms for cellular uptake depends on concentration. […] The treated Caco-2 and HT-29 co-cultured cells were then scraped off into a 2 mL microcentrifuge tube containing 1.0 mL extraction solution (10% Triton X-100) and sonicated to accelerate cell lysis. Then, 25 µL of the cell lysates from each well were subjected to a BCA protein assay (Thermo Scientific, Waltham, MA, USA) to determine the amount of cell protein as mentioned above. Then, cell lysates were centrifuged for 15 min at 14,000 rpm, and the supernatants were analyzed for the amount of uptake TP5 using the RP-HPLC method mentioned above. The uptake of TP5 by Caco-2 and HT-29 co-cultured cells was calculated and expressed as the amount of drug (ng) uptake per µg cell protein. […] The incubation temperature of 4 °C was also tested. After the removal of the drug solution and formulation (4 h incubation), the dishes were immediately rinsed twice with ice-cold HBSS solution (5 mL). The treated Caco-2 and HT-29 co-cultured cells were then scraped off into a 2 mL microcentrifuge tube containing 1.0 mL extraction solution (10% Triton X-100) and sonicated to accelerate cell lysis. Furthermore, 25 µL of the cell lysates from each well were subjected to a BCA protein assay (Thermo Scientific, Waltham, MA, USA) to determine the amount of cell protein mentioned above. Then, cell lysates were centrifuged for 15 min at 14,000 rpm, and the supernatants were analyzed for the amount of cellular uptake TP5 using the RP-HPLC method mentioned above. The uptake of TP5 by Caco-2 and HT-29 co-cultured cells was calculated and expressed as the amount of drug (ng) uptake per µg cell protein.

Data set [3] is described as follows: Transepithelial transport across Transwell monolayers (AP to BL), with inhibitors and enhancers. In kind it is in vitro ADME, human. The conditions noted are these: apical to basolateral, 6 h. On the procedure:
(§1) Caco-2 and HT-29 co-cultured cells at a density of 10^5 cells/cm^2 were seeded on 12-well Insert Transwell® inserts (0.4 µm pore diameter, 1.1 cm^2 area, Corning, New York, NY, USA). Caco-2 and HT-29 co-cultured cells were incubated at 37 °C in an atmosphere of 5% CO2 and 95% relative humidity in complete DMEM. The medium was replaced every 3 days with 0.5 mL medium on the apical (AP) side and 1.5 mL on the basolateral (BL) side, as shown in Figure 2. The integrity of the co-cultured cell monolayer was assessed by monitoring transepithelial electrical resistance (TEER). TEER measurements were conducted using a Millicell-ERS Volt-Ohm meter connected to a pair of chopstick electrodes (Millipore Corp, Boston, MA, USA). […] TEER measurements were taken at 3-day intervals until the TEER values surpassed 350 Ω·cm^2 (around 24 days post-seeding in this study). The TEER calculation utilized the formula TEER = (Rm − Rb) × A, where Rm, Rb, and A represent the measured TEER values, TEER values of the blank transwell, and the membrane surface area of the transwell (1.13 cm^2), respectively. Caco-2 monolayers with TEER values exceeding 350 Ω·cm^2 were deemed to have acceptable integrity and were considered suitable for the transport study.
(§2) Before the transport experiments, Caco-2 and HT-29 co-cultured cell monolayers underwent equilibration with HBSS for 30 min and were subsequently aspirated. All transport studies were carried out at 37 °C. A 0.5 mL solution of TP5 and TP5-PEG-niosomes (0.1 mg TP5 per mL in HBSS) was introduced on the AP side, while the BL side of the inserts contained 1.5 mL of HBSS, as depicted in Figure 2. At 0, 60, 120, 240, and 360 min of incubation, 200 µL was withdrawn from the BL-receiving chamber and immediately replaced with an equal volume of pre-warmed HBSS (37 °C). The concentration of TP5 in the transport medium was analyzed using RP-HPLC.
(§3) TP5 transport mechanisms were investigated in the absence or presence of variable inhibitors or enhancers. […] […].

Data set [4] has as its system Caco-2 and HT-29 co-cultured cell monolayers. The description is as above. The format is in vitro ADME, human. On the procedure:
as §1, §2, §3

The text below walks through data of article PMC10975061, “Cellular Uptake and Transport Mechanism Investigations of PEGylated Niosomes for Improving the Oral Delivery of Thymopentin” (Pharmaceutics, 2024).

Molecules are shown by their SMILES. Where two headings read alike, the source gives them in different places. Peptide text beside a SMILES is read from it.

`CN(C)C(=O)CCSC(SCCC(=O)O)c1cccc(/C=C/c2ccc3ccc(Cl)cc3n2)c1` (stereo not shown) [MK-571]: in data set [1] (MTT, 72 h at 37 °C), the “safe but still effective concentration for treatment” value stood at 0.1 mM.
On the same count and under the same terms, the figure for `C[C@H](CCC(=O)NCCS(=O)(=O)O)[C@H]1CC[C@H]2[C@@H]3[C@H](O)C[C@@H]4C[C@H](O)CC[C@]4(C)[C@H]3C[C@H](O)[C@]12C` [Sodium taurocholate] is 20 mM.
Regarding `CC(C)[C@H](NC(=O)[C@H](CC(=O)O)NC(=O)[C@H](CCCCN)NC(=O)[C@@H](N)CCCN=C(N)N)C(=O)N[C@@H](Cc1ccc(O)cc1)C(=O)O` [TP5, thymopentin] (H-RKDVY-OH), the “cytotoxicity (MTT cell viability)” value in data set [1] (TP5 solutions 0.005 to 10 mg/mL, 24, 48 and 72 h) is “not toxic”. Moreover, in data set [2] (1 mM protamine sulphate, 4 h, p < 0.005), the “cellular uptake amount with adsorptive-mediated endocytosis inhibitor” value was “significantly reduced”. The “cellular uptake amount at low temperature” value in data set [2] (4 °C, 4 h) was “significantly decreased”. Besides, the “time of highest amount of cellular uptake drug” value in data set [2] (HPLC and BCA assay, time course 0.5-5 h) is listed as 2 h. The compound also came in with a cellular uptake value in data set [2] (pure drug solution, in 2 h, maintained afterwards) of 3.56 ± 1.13 ng/µg. In addition, the Papp A→B is 0.142 ± 0.0089 ×10⁻⁶ cm/s in data set [3] (EDTA (10 mM), read-out: Papp values); 0.0573 ± 0.0063 ×10⁻⁶ cm/s in data set [3] (chlorpromazine (10 μg/mL), read-out: Papp values); 0.043 to 0.134 ×10⁻⁶ cm/s in data set [3] (lowest to highest over no treatment, inhibitors and enhancers, read-out: range of Papp values over all treatments); 0.0539 ± 0.0046 ×10⁻⁶ cm/s in data set [3] (no treatment, read-out: Papp values); 0.043 ± 0.0055 ×10⁻⁶ cm/s in data set [3] (silymarin (20 µM), read-out: Papp values); 0.059 ± 0.0052 ×10⁻⁶ cm/s in data set [3] (sodium azide (20 mM), read-out: Papp values). Besides, the Papp A→B in data set [3] (sodium taurocholate (20 mM), read-out: Papp values) is 0.134 ± 0.0052 ×10⁻⁶ cm/s. In addition, the “TP5 cumulative amount with EDTA” value in data set [4] (EDTA group, after the first 60 min) is listed as “increase sharply”. The “cumulative amount of TP5 transported, comparison between groups” value in data set [4] (no treatment, AP to BL) is reported as “no significant difference”. Moreover, in data set [4] (sodium taurocholate group, after the first 60 min), the “TP5 cumulative amount with sodium taurocholate” value is reported as “increase sharply”.
For the compound `CN(C)CCCN1c2ccccc2Sc2ccc(Cl)cc21` [chlorpromazine], the “safe but still effective concentration for treatment” value in data set [1] (human, 72 h) was 10 µg/mL.
Regarding `[N-]=[N+]=[N-].[Na+]` [sodium azide], the “safe but still effective concentration for treatment” value in data set [1] (MTT, 72 h at 37 °C) is listed as 20 mM.
